In PMC9046089, “CCNE1 amplification is synthetic lethal with PKMYT1 kinase inhibition” (Nature, 2022):
Values joined by “and” are separate entries in the source; they are usually repeats but may differ in a detail not shown here. Identical values can stand only once. Like-named read-outs stand apart in the source and are kept apart here.

Assays:
Assay type in all cases: cell-based
[1] = system: HCC1569 cells; assay: Cell proliferation assay (Incucyte growth inhibition, synergy); conditions: three replicates
Excerpt: (§1) Per cent confluence relative to a non-treated control was used to evaluate growth inhibition induced by test compounds. […] (https://synergyfinder.fimm.fi).

[2] = system: COV362 cells; assay: Cell proliferation assay (Incucyte growth inhibition); conditions: three replicates
Excerpt: as §1

[3] = system: SUM149PT cells; assay: as above; conditions: three replicates
Excerpt: as §1

[4] = system: KYSE30 cells; assay: as above; conditions: three replicates
Excerpt: as §1

[5] = system: RPE1-hTERT TP53-/- Cas9 parental cells; assay: as above
Excerpt: as §1

[6] = system: RPE1-hTERT TP53-/- Cas9 CCNE1-high cells; assay: as above
Excerpt: as §1

[7] = system: NUGC3 cells; assay: as above; conditions: three replicates
Excerpt: as §1

[8] = system: OVCAR3 cells; assay: as above; conditions: three replicates
Excerpt: as §1

[9] = system: SNU8 cells; assay: as above; conditions: three replicates
Excerpt: as §1

[10] = system: TOV112D cells; assay: as above; conditions: three replicates
Excerpt: as §1

[11] = system: DOTC24510 cells; assay: as above; conditions: three replicates
Excerpt: as §1

[12] = system: CDK2; assay: Immune complex histone H1 kinase assay, IP-CDK2, FT282 CCNE1-high cells; conditions: 24 h
Procedure: Protein concentration was determined by Bradford assay (Thermo Fisher Scientific cat. no. 1856209). For immunoprecipitation of kinases, 200 μg of extract was diluted in 750 μl EBN buffer and 10 μg of CDK1 or CDK2 primary antibody agarose bead conjugates were added to the extract and rotated at 4 °C overnight. Immunoprecipitates were pelleted by centrifugation at 2,500g at 4 °C for 5 min and washed 2× in 750 μl EBN followed by 1 ml EB (80 mM β-glycerol phosphate, 15 mM MgCl2, 20 mM EGTA, 1 mg ml^−1 ovalbumin). After the final wash, the immunoprecipitates were resuspended in 500 μl EB and split into two samples. One sample was used for immunoblot analysis and the other used for kinase assays. Following removal of the final wash, immunoprecipitates were resuspended in 11 μl histone H1 kinase assay buffer (80 mM β-glycerol phosphate, 15 mM MgCl2, 20 mM EGTA, 1 mg ml^−1 ovalbumin, 10 mM DTT, 0.15 μg μl^−1 histone H1 (Sigma-Aldrich, cat. no. H1917), 22 μM ATP, 0.05 μCi μl^−1 γ^32P-ATP (Perkin Elmer NEG502A250UC), pH 7.3) and incubated at room temperature for 30 min. Reactions were quenched by addition of 5 μl 6× sample buffer (60% glycerol, 6% SDS, 0.03% bromophenol blue, 1,500 mM Tris-Cl pH 6.8, 60 mM DTT) and resolved by SDS–PAGE. […] 32P-H1 band intensity was quantified using ImageJ v2.0.0.

[13] = system: CDK1; assay: Immune complex histone H1 kinase assay, IP-CDK1, FT282 CCNE1-high cells; conditions: 24 h; for 32P-labelled histone H1 band intensity, IP-CDK1 kinase assay: 0 nM = 1
Procedure: Protein concentration was determined by Bradford assay (Thermo Fisher Scientific cat. no. 1856209). For immunoprecipitation of kinases, 200 μg of extract was diluted in 750 μl EBN buffer and 10 μg of CDK1 or CDK2 primary antibody agarose bead conjugates were added to the extract and rotated at 4 °C overnight. Immunoprecipitates were pelleted by centrifugation at 2,500g at 4 °C for 5 min and washed 2× in 750 μl EBN followed by 1 ml EB (80 mM β-glycerol phosphate, 15 mM MgCl2, 20 mM EGTA, 1 mg ml^−1 ovalbumin). After the final wash, the immunoprecipitates were resuspended in 500 μl EB and split into two samples. One sample was used for immunoblot analysis and the other used for kinase assays. Following removal of the final wash, immunoprecipitates were resuspended in 11 μl histone H1 kinase assay buffer (80 mM β-glycerol phosphate, 15 mM MgCl2, 20 mM EGTA, 1 mg ml^−1 ovalbumin, 10 mM DTT, 0.15 μg μl^−1 histone H1 (Sigma-Aldrich, cat. no. H1917), 22 μM ATP, 0.05 μCi μl^−1 γ^32P-ATP (Perkin Elmer NEG502A250UC), pH 7.3) and incubated at room temperature for 30 min. Reactions were quenched by addition of 5 μl 6× sample buffer (60% glycerol, 6% SDS, 0.03% bromophenol blue, 1,500 mM Tris-Cl pH 6.8, 60 mM DTT) and resolved by SDS–PAGE. Gels were exposed to a phosphor imaging screen for 1–2 d and imaged using a Typhoon FLA 9500 (GE Healthcare Life Sciences). 32P-H1 band intensity was quantified using ImageJ v2.0.0.

[14] = read-out: RP-6306 EC50 (mM) RPE1 WT, growth inhibition, three replicates
[15] = read-out: RP-6306 EC50 (mM) RPE1 CCNE1 (C2), growth inhibition, three replicates

SMILES | EC50 ([1]; growth inhibition) | EC50 [3] | EC50 ([4]; growth inhibition) | EC50 [5, 14] | EC50 [6, 15] | EC50 ([7]; growth inhibition) | EC50 ([8]; growth inhibition) | EC50 [9] | EC50 [10] | EC50 ([11]; growth inhibition) | also measured
C[C@@]1(O)CCC[C@H]1n1c(=O)c(C(F)F)cc2cnc(NC3CCN(S(C)(=O)=O)CC3)nc21 [PF-06873600] | 37 nM and 41 nM and 40 nM | 75 nM and 85 nM and 80 nM | 32 nM and 22 nM and 29 nM | 98 nM and 79 nM and 106 nM | 0.000125 mM | 28 nM and 25 nM and 22 nM | 46 nM and 37 nM and 35 nM | 21 nM and 50 nM and 43 nM | 43 nM and 47 nM and 42 nM | 56 nM and 41 nM and 28 nM | EC50 ([2]; growth inhibition): 94 nM and 93 nM
C=CCn1c(=O)c2cnc(Nc3ccc(N4CCN(C)CC4)cc3)nc2n1-c1cccc(C(C)(C)O)n1 [AZD-1775] | 51 nM and 56 nM | 232 nM and 196 nM | 482 nM and 541 nM | 159 nM and 154 nM | 0.00015 mM and 0.000111 mM | 239 nM | 78 nM and 98 nM | 98 nM and 114 nM and 97 nM | 390 nM and 454 nM | 42 nM and 55 nM | EC50 ([1]; Homo sapiens, HCC1569, growth inhibition): 54 nM; CDK2 kinase activity [12]: activation of both kinases; EC50 ([2]; COV362, growth inhibition): 49 nM; EC50 ([3]; Homo sapiens): 211 nM; EC50 ([4]; Homo sapiens, KYSE-30, growth inhibition): 437 nM; EC50 ([5]; Homo sapiens, RPE-1, read-out: RP-6306 EC50 (mM) RPE1 WT, growth inhibition, three replicates): 172 nM; EC50 ([6]; Homo sapiens, RPE-1, read-out: RP-6306 EC50 (mM) RPE1 CCNE1 (C2), growth inhibition, three replicates): 0.000113 mM; EC50 ([7]; Homo sapiens, NUGC-3, growth inhibition): 212 nM; EC50 ([8]; Homo sapiens, OVCAR-3, growth inhibition): 94 nM; EC50 ([10]; Homo sapiens): 444 nM; EC50 ([11]; Homo sapiens, DoTc2-4510, growth inhibition): 38 nM; 32P-labelled histone H1 band intensity, IP-CDK1 kinase assay ([13]; AZD-1775 250 nM): 1.298 and 1.203 and 0.7824; 32P-labelled histone H1 band intensity, IP-CDK1 kinase assay ([13]; AZD-1775 500 nM): 1.804 and 1.271 and 1.266; 32P-labelled histone H1 band intensity, IP-CDK1 kinase assay ([13]; AZD-1775 1000 nM): 2.54 and 1.785 and 1.69; CDK1 kinase activity ([13]; FT282 CCNE1-high cells): activation of both kinases
